# Reference: article PMC9607081 (Membranes, 2022)
# Key:
# [1] = biological target: human GlyR α1 subunit P30 (α1β1L) substituted with Pro (Homo sapiens, UniProt P23415); conditions: Table 2, n = 6
# Description: (§1) The cDNA for the human GlyR α1 subunit was in pGEMHE (ThermoFischer Scientific, Bishops Stortford, UK). Site-directed mutagenesis was performed using QuikChange (Agilent Technologies, Milton Keynes, UK) to generate the appropriate codon. For non-canonical amino acid mutants and conventional mutants generated by nonsense suppression, the site of interest was mutated to the TAG stop codon. Receptor mRNA was then prepared by in vitro runoff transcription using the Ambion T7 mMessage mMachine kit (ThermoFischer Scientific, Bishops Stortford, UK). Noncanonical amino acids were ligated to tRNA as previously described.
# (§2) Stage V-VI oocytes of Xenopus laevis were harvested and injected with RNAs as described previously. For nonsense suppression experiments, each cell was injected with 50–100 ng each of receptor mRNA and tRNA charged with the appropriate Pro analogue ~48 h before recording. For wild type and conventional mutants, each cell received a single injection of 10–25 ng of receptor mRNA ~24 h before recording. Injection volumes were 50–100 nL per cell.
# (§3) As a negative control for suppression experiments at each site, unligated tRNA was co-injected with mRNA in the same manner as charged tRNA. […] Pro recovery (injecting tRNA charged with Pro to regenerate a wild type channel via nonsense suppression) was used alongside Pro analogues as a positive control.
# (§4) Two-electrode voltage clamping of Xenopus oocytes was performed using standard electrophysiological procedures as previously, using an OpusXpress system (Axon Instruments, Inc., Union City, CA, USA). All experiments were performed at 22–25 °C. […] The holding potential was −60 mV unless otherwise specified. […] Data were analysed using Prism (GraphPad Software Inc., San Diego, CA, USA), fitting concentration-response data to the four-parameter logistic equation. Statistical analysis was performed using ANOVA with a Dunnett’s multiple comparisons post test.
# [2] = tested on: human GlyR α1 subunit P96 (loopA) substituted with TFP
# Description: as §1, §2, §3, §4
# [3] = tested on: human GlyR α1 subunit P96 (loopA) substituted with CFP
# Description: as §1, §2, §3, §4
# [4] = tested on: human GlyR α1 subunit P230 (M1) substituted with CFP
# Description: as §1, §2, §3, §4
# [5] = tested on: human GlyR α1 subunit P230 (M1) substituted with Pip
# Description: as §1, §2, §3, §4
# [6] = tested on: human GlyR α1 subunit P30 (α1β1L) substituted with 2MeP; conditions: Table 2, P30 2MeP, n = 5
# Description: as §1, §2, §3, §4
# [7] = tested on: human GlyR α1 subunit P30 (α1β1L) substituted with TFP
# Description: as §1, §2, §3, §4
# [8] = tested on: human GlyR α1 subunit P30 (α1β1L) substituted with Pip
# Description: as §1, §2, §3, §4
# [9] = tested on: human GlyR α1 subunit P96 (loopA) substituted with 2MeP; conditions: Table 2, P96 2MeP, n = 4
# Description: as §1, §2, §3, §4
# [10] = tested on: human GlyR α1 subunit P30 (α1β1L) substituted with CFP
# Description: as §1, §2, §3, §4
# [11] = tested on: human GlyR α1 subunit P96 (loopA) substituted with Pip
# Description: as §1, §2, §3, §4
# [12] = tested on: human GlyR α1 subunit P230 (M1) substituted with 2MeP; conditions: Table 2, P230 2MeP, n = 4
# Description: as §1, §2, §3, §4
# [13] = tested on: human GlyR α1 subunit P146 (CysL) substituted with TFP
# Description: as §1, §2, §3, §4
# [14] = tested on: human GlyR α1 subunit P30 (α1β1L) substituted with 3MeP; conditions: Table 2, P30 3MeP, n = 4
# Description: as §1, §2, §3, §4
# [15] = biological target: T1, human GlyR α1 subunit P146 (CysL) substituted with CFP (Homo sapiens, UniProt P23415, P174X); assay: TEVC, oocytes, nonsense suppression, P146 CFP; format: cell-based
# T1 sequence (P23415 29-457 P174X): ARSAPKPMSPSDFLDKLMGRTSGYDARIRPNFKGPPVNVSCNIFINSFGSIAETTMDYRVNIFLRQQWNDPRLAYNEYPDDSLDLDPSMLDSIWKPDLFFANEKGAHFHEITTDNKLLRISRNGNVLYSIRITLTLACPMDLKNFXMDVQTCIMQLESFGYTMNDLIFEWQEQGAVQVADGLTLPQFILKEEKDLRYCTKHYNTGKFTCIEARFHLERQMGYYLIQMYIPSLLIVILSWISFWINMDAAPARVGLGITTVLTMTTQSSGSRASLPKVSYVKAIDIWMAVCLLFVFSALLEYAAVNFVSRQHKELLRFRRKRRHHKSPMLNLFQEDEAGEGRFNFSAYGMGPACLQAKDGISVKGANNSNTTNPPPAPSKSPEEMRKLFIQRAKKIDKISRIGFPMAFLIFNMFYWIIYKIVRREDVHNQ
# Description: as §1, §2, §3, §4
# [16] = biological target: T2, human GlyR α1 subunit P146 (CysL) substituted with 2MeP (Homo sapiens, UniProt P23415, P174X); assay: TEVC, oocytes, nonsense suppression, P146 2MeP; format: cell-based; conditions: for EC50: n = 3
# T2 sequence (P23415 29-457 P174X): T1 sequence (P23415 29-457 P174X)
# Description: as §1, §2, §3, §4
# [17] = biological target: T3, human GlyR α1 subunit P146 (CysL) substituted with Pip (Homo sapiens, UniProt P23415, P174X); assay: TEVC, oocytes, nonsense suppression, P146 Pip; format: cell-based; conditions: for EC50: n = 3
# T3 sequence (P23415 29-457 P174X): T1 sequence (P23415 29-457 P174X)
# Description: as §1, §2, §3, §4
# [18] = Table 2, nonsense suppression, n = 4
# [19] = Table 2, nonsense suppression, n = 5
# [20] = Table 2, nonsense suppression, n = 6
# [21] = EC50, Table 3, nonsense suppression
# [22] = Table 3, n = 3, read-out: % ImaxTau /ImaxGly
# [23] = pEC50, Table 3, nonsense suppression
# human GlyR α1 subunit P30 (α1β1L) substituted with Pro, sequence (P23415 29-457): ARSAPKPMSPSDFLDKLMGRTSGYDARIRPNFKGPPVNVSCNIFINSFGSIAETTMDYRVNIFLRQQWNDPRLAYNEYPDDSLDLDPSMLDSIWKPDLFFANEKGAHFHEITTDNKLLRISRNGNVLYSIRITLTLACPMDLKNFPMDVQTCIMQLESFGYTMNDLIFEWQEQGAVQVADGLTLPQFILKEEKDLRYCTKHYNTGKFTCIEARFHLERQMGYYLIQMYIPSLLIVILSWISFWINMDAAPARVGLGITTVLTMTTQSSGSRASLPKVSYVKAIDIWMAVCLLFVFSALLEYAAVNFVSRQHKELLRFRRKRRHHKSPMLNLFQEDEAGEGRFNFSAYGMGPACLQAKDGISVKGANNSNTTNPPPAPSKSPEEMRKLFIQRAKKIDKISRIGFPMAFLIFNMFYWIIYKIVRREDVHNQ
smiles,measurement,setting,value
"NCC(=O)O [Gly, glycine]",nH,[1],2.9 ± 1.2
same,nH,"[2]; Table 2, n = 4",2.9 ± 0.7
same,EC50,[2]; [18],127 µM
same,pEC50,[2]; [18],3.898 ± 0.03 M
same,nH,"[3]; Table 2, n = 4",3.2 ± 0.7
same,EC50,[3]; [18],145 µM
same,pEC50,[3]; [18],3.840 ± 0.05 M
same,nH,"[4]; Table 2, n = 4",1.4 ± 0.2
same,EC50,[4]; [18],74 µM
same,pEC50,[4]; [18],4.131 ± 0.04 M
same,nH,"[5]; Table 2, n = 4",1.1 ± 0.2
same,EC50,[5]; [18],68 µM
same,pEC50,[5]; [18],4.166 ± 0.08 M
same,nH,[6],1.6 ± 0.3
same,EC50,[6]; nonsense suppression,368 µM
same,pEC50,[6]; nonsense suppression,3.434 ± 0.06 M
same,nH,"[7]; Table 2, n = 5",2.7 ± 1.3
same,EC50,[7]; [19],97 µM
same,pEC50,[7]; [19],4.013 ± 0.05 M
same,nH,"[8]; Table 2, n = 4",2.7 ± 0.7
same,EC50,[8]; [18],36 µM
same,pEC50,[8]; [18],4.439 ± 0.03 M
same,nH,[9],2.8 ± 0.5
same,EC50,[9]; nonsense suppression,254 µM
same,pEC50,[9]; nonsense suppression,3.596 ± 0.03 M
same,nH,"[10]; Table 2, n = 6",2.8 ± 0.7
same,EC50,[10]; [20],150 µM
same,pEC50,[10]; [20],3.825 ± 0.06 M
same,nH,"[11]; Table 2, n = 4",2.9 ± 0.3
same,EC50,[11]; [18],215 µM
same,pEC50,[11]; [18],3.667 ± 0.02 M
same,nH,[12],1.6 ± 0.5
same,EC50,[12]; nonsense suppression,177 µM
same,pEC50,[12]; nonsense suppression,3.751 ± 0.08 M
same,nH,"[13]; Table 2, n = 5",2.3 ± 0.4
same,EC50,[13]; [19],156 µM
same,pEC50,[13]; [19],3.806 ± 0.05 M
same,nH,[14],3.0 ± 2.7
same,EC50,[14]; nonsense suppression,8.9 µM
same,pEC50,[14]; nonsense suppression,5.046 ± 0.05 M
same,nH,"[15]; Table 2, P146 CFP, n = 6",3.7 ± 0.6
same,nH,"[15]; Table 3, P146 CFP, n = 3",3.0 ± 0.5
same,nH,"[16]; Table 2, n = 6",2.2 ± 0.5
same,nH,"[16]; Table 3, n = 3",3.6 ± 0.2
same,nH,"[17]; Table 2, n = 5",1.9 ± 0.7
same,nH,"[17]; Table 3, n = 3",2.7 ± 0.9
"NCCS(=O)(=O)O [Tau, taurine]",EC50,[15],579 µM
same,nH,"[15]; Table 3, P146 CFP, n = 3",2.1 ± 0.2
same,Emax,"[15]; Table 3, P146 CFP, n = 3, read-out: % ImaxTau /ImaxGly",71 ± 3%
same,EC50,[16]; [21],3180 µM
same,nH,"[16]; Table 3, n = 3",2.4 ± 0.6
same,Emax,[16]; [22],18 ± 2%
same,EC50,[16]; [23],3180 µM
same,EC50,[17]; [21],757 µM
same,nH,"[17]; Table 3, n = 3",1.8 ± 0.3
same,Emax,[17]; [22],64 ± 7%
same,EC50,[17]; [23],757 µM
